Data reported in ChEMBL document CHEMBL1201862, “PubChem BioAssay data set” (2004).
Where “and” joins values, the source holds several entries; their conditions need not be identical. Equal entries are not always repeated.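 In this assay, cells in 96-well plates receive the compound at five concentrations for 48 hours. Endpoints are linearly interpolated between the surrounding concentrations. At the GI50, growth is halved.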 Calls of active or inactive are those of the source. No stated cut-off is given here; in the data, active = GI50 up to about 1.1 µM and inactive = higher.

Columns and labels:
Assay in all cases: NCI anticancer screen, dose series, 48 h
[1] = test system: HCC 2998
[2] = test system: SF-295
[3] = test system: KM12
[4] = test system: TK-10
[5] = test system: NCI-H460
[6] = test system: A498
[7] = test system: LOX IMVI
[8] = test system: UACC-257
[9] = test system: RXF 393
[10] = test system: OVCAR-8
[11] = test system: SR
[12] = test system: ACHN
[13] = test system: SK-MEL-5
[14] = test system: DU-145
[15] = test system: MDA-MB-435
[16] = test system: OVCAR-3
[17] = test system: NCI-H226
[18] = test system: SN12C
[19] = test system: MDA-N
[20] = test system: SNB-75

SMILES | GI50 [1] | GI50 [2] | GI50 [3] | GI50 [4] | GI50 [5] | GI50 [6] | GI50 [7] | GI50 [8] | GI50 [9] | GI50 [10] | GI50 [11] | GI50 [12] | GI50 [13] | GI50 [14] | GI50 [15] | GI50 [16] | GI50 [17] | GI50 [18] | GI50 [19] | GI50 [20]
CN(C)c1ccc(C(c2ccc(N(C)C)cc2)c2ccc([N+](=O)[O-])cc2)cc1 | > 100 µM (inactive) | > 100 µM (inactive) | > 100 µM (inactive) | > 100 µM (inactive) | > 100 µM (inactive) | > 100 µM (inactive) | > 100 µM (inactive) | > 100 µM (inactive) | > 100 µM (inactive) | > 100 µM (inactive) | 90.6 µM (inactive) | > 100 µM (inactive) | > 100 µM (inactive) | > 100 µM (inactive) | > 100 µM (inactive) | > 100 µM (inactive) | > 100 µM (inactive) | > 100 µM (inactive) | > 100 µM (inactive) | –
C/C=C/COc1cc(NC(=S)OC(C)C)ccc1Cl.C/C=C\COc1cc(NC(=S)OC(C)C)ccc1Cl | 16.1 µM (inactive) | 20.2 µM (inactive) | 17.4 µM (inactive) | 14.9 µM (inactive) | 16 µM (inactive) | 16.2 µM (inactive) | 19.5 µM (inactive) | 18.7 µM (inactive) | 14.9 µM (inactive) | 18.7 µM (inactive) | 16.8 µM (inactive) | 17.7 µM (inactive) | 16.2 µM (inactive) | 26.5 µM (inactive) | 21.2 µM (inactive) | 18.5 µM (inactive) | 17.5 µM (inactive) | 14.2 µM (inactive) | 16.1 µM (inactive) | –
COC(=O)[C@]1(C)CCCC2(C)C3=C(CCC21)CC1(CC3)SCCS1 (stereo partly drawn) | > 10 µM (inactive) | – | > 10 µM (inactive) | > 10 µM (inactive) | – | > 10 µM (inactive) | – | > 10 µM (inactive) | – | > 10 µM (inactive) | > 10 µM (inactive) | > 10 µM (inactive) | > 10 µM (inactive) | > 10 µM (inactive) | > 10 µM (inactive) | > 10 µM (inactive) | – | > 10 µM (inactive) | > 10 µM (inactive) | > 10 µM (inactive)
CCCCCCCCCCCC(=O)c1c(O)cc(C)oc1=O | 42 µM (inactive) | 42.8 µM (inactive) | 44.9 µM (inactive) | > 100 µM (inactive) | 57.4 µM (inactive) | 81.8 µM (inactive) | 28.1 µM (inactive) | 57.9 µM (inactive) | – | 33.5 µM (inactive) | > 10 µM (inactive) | 31.5 µM (inactive) | 29 µM (inactive) | 48.3 µM (inactive) | 49.5 µM (inactive) | 55.5 µM (inactive) | 45.6 µM (inactive) | 33.3 µM (inactive) | 34.6 µM (inactive) | 36.4 µM (inactive)
CCC1(O)CC(OC2CC(N(C)C)C(OC3CC(O)C(OC4OC(C)C(=O)C=C4N)C(C)O3)C(C)O2)c2c(O)c3c(c(O)c2C1C(=O)OC)C(=O)c1cccc(O)c1C3=O (stereo not drawn) | 0.0302 µM (active) | 0.00134 µM (active) | 0.0032 µM (active) | 0.0168 µM (active) | 0.000452 µM (active) | 0.00105 µM (active) | 0.0115 µM (active) | 0.00836 µM (active) | – | 0.00398 µM (active) | 0.00413 µM (active) | 0.00418 µM (active) | 0.00417 µM (active) | 0.00686 µM (active) | 0.00371 µM (active) | 0.0225 µM (active) | 0.0139 µM (active) | 0.0259 µM (active) | 0.0048 µM (active) | 0.0311 µM (active)
O/N=C/C1c2ccccc2-c2ccccc21 | 15.9 µM (inactive) | 22.5 µM (inactive) | 17.4 µM (inactive) | 18.9 µM (inactive) | 17.3 µM (inactive) | 17.5 µM (inactive) | 23 µM (inactive) | 17.5 µM (inactive) | 19.5 µM (inactive) | 19.6 µM (inactive) | 23.2 µM (inactive) | 16.4 µM (inactive) | 12.5 µM (inactive) | 20.8 µM (inactive) | 15.8 µM (inactive) | 16.1 µM (inactive) | 15 µM (inactive) | 16.4 µM (inactive) | 14.2 µM (inactive) | –
CC(C)(C)c1cc(C(=O)C2Cc3ccccc3C(=O)O2)cc(C(C)(C)C)c1O (stereo not drawn) | – | 14.1 µM (inactive) | 12 µM (inactive) | 15.3 µM (inactive) | 10.9 µM (inactive) | 13.5 µM (inactive) | 11.9 µM (inactive) | 11.6 µM (inactive) | 12.1 µM (inactive) | 10.4 µM (inactive) | 3.59 µM (inactive) | 17.1 µM (inactive) | 12.6 µM (inactive) | 14.8 µM (inactive) | 10.7 µM (inactive) | 12.2 µM (inactive) | 17.9 µM (inactive) | 11.5 µM (inactive) | 8.61 µM (inactive) | 17.3 µM (inactive)
Cn1[nH]nn/c1=N\N=C\c1ccccc1 | > 10 µM (inactive) | > 10 µM (inactive) | > 10 µM (inactive) | > 10 µM (inactive) | > 10 µM (inactive) | – | > 10 µM (inactive) | > 10 µM (inactive) | > 10 µM (inactive) | > 10 µM (inactive) | > 10 µM (inactive) | > 10 µM (inactive) | > 10 µM (inactive) | > 10 µM (inactive) | > 10 µM (inactive) | > 10 µM (inactive) | > 10 µM (inactive) | > 10 µM (inactive) | > 10 µM (inactive) | > 10 µM (inactive)
c1ccc2c(c1)CC1COc3ccccc3C1O2 (stereo not drawn) | 42.3 µM (inactive) | 64.4 µM (inactive) | 44.2 µM (inactive) | 95.5 µM (inactive) | – | > 100 µM (inactive) | 58.7 µM (inactive) | 38.8 µM (inactive) | – | > 100 µM (inactive) | 88.1 µM (inactive) | 75.9 µM (inactive) | 17.4 µM (inactive) | > 100 µM (inactive) | 47.4 µM (inactive) | 67.8 µM (inactive) | > 100 µM (inactive) | 67.5 µM (inactive) | 38 µM (inactive) | > 100 µM (inactive)
N#Cc1c(-c2ccccc2)c(C#N)c(=S)n(C2OCC(O)C(O)C2O)c1N (stereo not drawn) | > 100 µM (inactive) | > 100 µM (inactive) | > 100 µM (inactive) | 30.8 µM (inactive) and 61.5 µM (inactive) | > 100 µM (inactive) | > 100 µM (inactive) | > 100 µM (inactive) | > 100 µM (inactive) | – | > 100 µM (inactive) | > 100 µM (inactive) | > 100 µM (inactive) | > 100 µM (inactive) | > 100 µM (inactive) | > 100 µM (inactive) | > 100 µM (inactive) | > 100 µM (inactive) | > 100 µM (inactive) | > 100 µM (inactive) | > 100 µM (inactive)
CCCCC(=C=C1CCCCC1O)C1CCCN1C(=O)OC(C)(C)C (stereo not drawn) | 22.1 µM (inactive) | 14.8 µM (inactive) | 16.6 µM (inactive) | 16.1 µM (inactive) | 15.5 µM (inactive) | – | 17.7 µM (inactive) | 15.6 µM (inactive) | 13 µM (inactive) | 18.7 µM (inactive) | 23.6 µM (inactive) | 15.8 µM (inactive) | 16.6 µM (inactive) | 17.5 µM (inactive) | 16.9 µM (inactive) | 15.7 µM (inactive) | 17.4 µM (inactive) | 17.8 µM (inactive) | 16.4 µM (inactive) | 13.8 µM (inactive)
O=C1C(/C=N/CCc2c[nH]c3ccccc23)C(C(F)(F)F)=NN1c1nc2ccccc2s1 (stereo not drawn) | – | 24 µM (inactive) | – | 25.4 µM (inactive) | 24.1 µM (inactive) | 20.3 µM (inactive) | 27.9 µM (inactive) | 18 µM (inactive) | 15 µM (inactive) | 29.7 µM (inactive) | 31.6 µM (inactive) | 27.4 µM (inactive) | 18.3 µM (inactive) | 23.3 µM (inactive) | 25.4 µM (inactive) | 20.7 µM (inactive) | 26.4 µM (inactive) | 37.6 µM (inactive) | 32.8 µM (inactive) | 24.8 µM (inactive)
CC(=O)NC(Cc1c[nH]cn1)C(=O)N1CCCC1C(N)=O (stereo not drawn) | > 100 µM (inactive) | > 100 µM (inactive) | > 100 µM (inactive) | > 100 µM (inactive) | > 100 µM (inactive) | – | > 100 µM (inactive) | – | > 100 µM (inactive) | > 100 µM (inactive) | > 100 µM (inactive) | > 100 µM (inactive) | > 100 µM (inactive) | > 100 µM (inactive) | > 100 µM (inactive) | > 100 µM (inactive) | > 100 µM (inactive) | > 100 µM (inactive) | > 100 µM (inactive) | > 100 µM (inactive)
O=c1c2cc(S(=O)(=O)Nc3ccc(Cl)cc3Cl)ccc2ncn1NS(=O)(=O)c1cccc2ccccc12 | 20 µM (inactive) | 37.4 µM (inactive) | 22.4 µM (inactive) | 85.7 µM (inactive) | 36.6 µM (inactive) | – | 15.5 µM (inactive) | 77.6 µM (inactive) | – | 52.2 µM (inactive) | 22.9 µM (inactive) | 47.5 µM (inactive) | – | 36.5 µM (inactive) | 58.9 µM (inactive) | 33.9 µM (inactive) | 18.6 µM (inactive) | 91.6 µM (inactive) | 48 µM (inactive) | 60.5 µM (inactive)
Cc1ccc(/C=C2\NC(=S)N(CN3CCCCC3)C2=O)cc1 | – | 44.6 µM (inactive) | > 100 µM (inactive) | 69.3 µM (inactive) | – | 41.3 µM (inactive) | 34.4 µM (inactive) | – | – | 32.5 µM (inactive) | 83.6 µM (inactive) | 43.2 µM (inactive) | 33.3 µM (inactive) | 36.1 µM (inactive) | 46.5 µM (inactive) | 65.3 µM (inactive) | 55.7 µM (inactive) | 63.7 µM (inactive) | 65.2 µM (inactive) | > 100 µM (inactive)
